Data: patent US10988478B1, “Pyrazolo[1,5a]pyrimidine derivatives as IRAK4 modulators” (Genentech, Inc., priority 2015, dated 2021)
pKi: −log10 of the molar value.

Target: human IRAK4 (Homo sapiens (Human), UniProt Q9NWZ3)
Experiment: IRAK4 kinase inhibition, Transcreener fluorescence polarization ADP assay
Type: biochemical
Conditions: recombinant full-length His6-IRAK4; 125 uM ATP; 90 min; Ki computed using ATP Km 642 uM
Procedure: Compounds were assayed for inhibition of human IRAK4 and IRAK1 catalytic activity using recombinant enzyme produced from insect cells. Full-length IRAK4 protein, carrying an N-terminal His6-Tag, was obtained from Life Technologies (Carlsbad, Calif., USA). The IRAK1 construct was produced internally and was comprised of IRAK1 residues Arg194 to Ser712, preceded by an NH2-terminal His6 tag and the coding sequence for glutathione-S-transferase.

Chain of human IRAK4 (Q9NWZ3 whole entry): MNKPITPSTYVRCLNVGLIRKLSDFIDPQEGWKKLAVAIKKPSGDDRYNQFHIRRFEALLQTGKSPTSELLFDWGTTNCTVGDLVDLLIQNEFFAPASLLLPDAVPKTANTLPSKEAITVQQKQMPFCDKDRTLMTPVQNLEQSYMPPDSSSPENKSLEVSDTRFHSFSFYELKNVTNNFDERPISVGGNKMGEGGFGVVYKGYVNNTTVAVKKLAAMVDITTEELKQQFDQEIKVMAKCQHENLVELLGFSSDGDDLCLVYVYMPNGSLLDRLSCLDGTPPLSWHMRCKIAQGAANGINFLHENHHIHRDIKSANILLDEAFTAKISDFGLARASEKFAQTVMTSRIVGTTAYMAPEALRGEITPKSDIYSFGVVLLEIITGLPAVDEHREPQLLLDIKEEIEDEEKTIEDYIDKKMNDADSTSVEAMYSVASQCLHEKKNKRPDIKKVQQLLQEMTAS

| Compound | pKi |
| --- | --- |
| CC1(C)Cc2cc(NC(=O)c3cnn4cccnc34)c(OCC3CCOC3)cc2O1 (stereo not drawn) [Example 296, N-(2,2-Dimethyl-6-((tetrahydrofuran-3-yl)methoxy)-2,3-dihydrobenzofuran-5-yl)pyrazolo[1,5-α]pyrimidine-3-carboxamide] | 7.74 |
| Cc1cnc2c(C(=O)Nc3cc4c(cc3N3CCOCC3)O[C@@](C)(CO)C4)cnn2c1 [Example 29, (R)—N-(2-(hydroxymethyl)-2-methyl-6-morpholino-2,3-dihydrobenzofuran-5-yl)-6-methylpyrazolo[1,5-a]pyrimidine-3-carboxamide] | 8.05 |
| CC1(C)Cc2cc(NC(=O)c3cnn4cccnc34)c(N3CCC(C(N)C(F)(F)F)CC3)cc2O1 (centres unmarked) [Example 24, N-[6-[4-(1-Amino-2,2,2-trifluoro-ethyl)-1-piperidyl]-2,2-dimethyl-3H-benzofuran-5-yl]pyrazolo[1,5-a]pyrimidine-3-carboxamide] | 8.54 |
| CC1(C)Cc2cc(NC(=O)c3cnn4cccnc34)c(N3CC4(CCC4(F)F)C3)cc2O1 [Example 204, N-(6-(5,5-difluoro-2-azaspiro[3.3]heptan-2-yl)-2,2-dimethyl-2,3-dihydrobenzofuran-5-yl)pyrazolo[1,5-a]pyrimidine-3-carboxamide] | 6.14 |
| O=C(Nc1cc2c(cc1N1CCOCC1)C(=O)N(CCO)C2)c1cnn2cccnc12 [Example 179, N-[2-(2-hydroxyethyl)-6-morpholino-1-oxo-isoindolin-5-yl]pyrazolo[1,5-a]pyrimidine-3-carboxamide] | 7.51 |
| C[C@]1(CO)Cc2cc(NC(=O)c3cnn4cc(Cl)cnc34)c(N3CCN(CC(F)F)CC3)cc2O1 [Example 170, (R)-6-Chloro-N-(6-(4-(2,2-difluoroethyl)piperazin-1-yl)-2-(hydroxymethyl)-2-methyl-2,3-dihydrobenzofuran-5-yl)pyrazolo[1,5-a]pyrimidine-3-carboxamide] | 8.52 |
| O=C(Nc1cc2c(cc1N1CCOCC1)C(=O)N(C1CCOC1)C2)c1cnn2cccnc12 (single isomer, unassigned) [Example 275, N-(6-morpholino-1-oxo-2-(tetrahydrofuran-3-yl)isoindolin-5-yl)pyrazolo[1,5-a]pyrimidine-3-carboxamide] | 7.47 |
| CC1(C)Cc2cc(NC(=O)c3cnn4cccnc34)c(N3CCOCC3)c(C#N)c2O1 [Example 143, N-(7-Cyano-2,2-dimethyl-6-morpholino-2,3-dihydrobenzofuran-5-yl)pyrazolo[1,5-a]pyrimidine-3-carboxamide] | 6.13 |
| CC1(C)Cc2cc(NC(=O)c3cnn4cccnc34)c(N3CCC(F)(F)C3)cc2O1 [Example 217, N-(6-(3,3-difluoropyrrolidin-1-yl)-2,2-dimethyl-2,3-dihydrobenzofuran-5-yl)pyrazolo[1,5-a]pyrimidine-3-carboxamide] | 7.82 |
| C[C@@]1(CO)Cc2cc(NC(=O)c3cnn4cc(F)cnc34)c(N3CCOCC3)cc2O1 [Example 55, (S)-6-Fluoro-N-(2-(hydroxymethyl)-2-methyl-6-morpholino-2,3-dihydrobenzofuran-5-yl)pyrazolo[1,5-a]pyrimidine-3-carboxamide] | 7.47 |
| CC1(C)Cc2cc(NC(=O)c3cnn4cccnc34)c(N3CCS(=O)(=O)CC3)cc2O1 [Example 41, N-[6-(1,1-Dioxo-thiomorpholin-4-yl)-2,2-dimethyl-2,3-dihydro-1-benzofuran-5-yl]pyrazolo[1,5-a]pyrimidine-3-carboxamide] | 7.08 |
| C[C@@]1(CO)Cc2cc(NC(=O)c3cnn4cccnc34)c(N3C[C@@H]4C[C@H]3CO4)cc2O1 (single isomer, unassigned) [Example 46] | 6.27 |
| CC1(C)Cc2cc(NC(=O)c3cnn4cccnc34)c(N3CCc4cncn4CC3)cc2O1 [Example 101, N-[2,2-dimethyl-6-(5,6,8,9-tetrahydroimidazo[1,5-d][1,4]diazepin-7-yl)-3H-benzofuran-5-yl]pyrazolo[1,5-a]pyrimidine-3-carboxamide] | 7.49 |

More lines, now with the values ahead:

| pKi | Compound |
| --- | --- |
| 8.29 | Cn1cncc1CN1CCN(c2cc3c(cc2NC(=O)c2cnn4cccnc24)CC(C)(C)O3)CC1 [Example 506, N-(2,2-dimethyl-6-(4-((1-methyl-1H-imidazol-5-yl)methyl)piperazin-1-yl)-2,3-dihydrobenzofuran-5-yl)pyrazolo[1,5-a]pyrimidine-3-carboxamide] |
| 8.49 | Cc1nc(CN2CCN(c3cc4c(cc3NC(=O)c3cnn5cccnc35)CC(C)(C)O4)CC2)c[nH]1 [Example 507, N-(2,2-dimethyl-6-(4-((2-methyl-1H-imidazol-4-yl)methyl)piperazin-1-yl)-2,3-dihydrobenzofuran-5-yl)pyrazolo[1,5-a]pyrimidine-3-carboxamide] |
| 7.36 | C[C@]1(O)COc2cc(N3CCN(CC(F)F)CC3)c(NC(=O)c3cnn4cccnc34)cc2C1 [Example 510, (R)—N-(7-(4-(2,2-difluoroethyl)piperazin-1-yl)-3-hydroxy-3-methylchroman-6-yl)pyrazolo[1,5-a]pyrimidine-3-carboxamide] |
| 6.96 | CC1(C)Cc2cc(NC(=O)c3cnn4cccnc34)c([C@@H]3C[C@H]3C(N)=O)cc2O1 [Example 396, N-(6-((1R,2R)-2-Carbamoylcyclopropyl)-2,2-dimethyl-2,3-dihydrobenzofuran-5-yl)pyrazolo[1,5-a]pyrimidine-3-carboxamide] |
| 8.35 | O=C(Nc1cc2c(cc1N1CCOCC1)C(=O)N(C[C@H]1CCOC1)C2)c1cnn2cccnc12 [Example 556, N-[6-morpholino-1-oxo-2-[[(3R)-tetrahydrofuran-3-yl]methyl]isoindolin-5-yl]pyrazolo[1,5-a]pyrimidine-3-carboxamide] |
| 8.28 | CC(C)(O)C1(C)Cc2cc(NC(=O)c3cnn4cccnc34)c(N3CCC(CO)CC3)cc2O1 (centres unmarked) [Example 363, N-(6-(4-(hydroxymethyl)piperidin-1-yl)-2-(2-hydroxypropan-2-yl)-2-methyl-2,3-dihydrobenzofuran-5-yl)pyrazolo[1,5-a]pyrimidine-3-carboxamide] |
| 8.40 | C[C@]1(CO)Cc2cc(NC(=O)c3cnn4cccnc34)c(N3CCC(C4(O)CC4)CC3)cc2O1 [Example 341, N-[(2R)-6-[4-(1-hydroxycyclopropyl)-1-piperidyl]-2-(hydroxymethyl)-2-methyl-3H-benzofuran-5-yl]pyrazolo[1,5-a]pyrimidine-3-carboxamide] |
| 6.38 | CC1(C)Cc2cc(NC(=O)c3cnn4ccc(C[C@@H]5CCNC5=O)nc34)c(C3CC3)cc2O1 [Example 515, (S)—N-(6-cyclopropyl-2,2-dimethyl-2,3-dihydrobenzofuran-5-yl)-5-((2-oxopyrrolidin-3-yl)methyl)pyrazolo[1,5-a]pyrimidine-3-carboxamide] |
| 8.04 | CNC(=O)c1cnc2c(C(=O)Nc3cc4c(cc3N3CCOCC3)C(=O)N(C[C@@H](F)C(C)(C)O)C4)cnn2c1 [Example 492, N3-[2-[(2R)-2-Fluoro-3-hydroxy-3-methyl-butyl]-6-morpholino-1-oxo-isoindolin-5-yl]-N^6-methyl-pyrazolo[1,5-a]pyrimidine-3,6-dicarboxamide] |
| 7.62 | O=C(Nc1cc2c(cc1N1CCOCC1)OC1(CCNC1)C2)c1cnn2cccnc12 (centres unmarked) [Example 393, N-(6-Morpholinospiro[3H-benzofuran-2,3′-pyrrolidine]-5-yl)pyrazolo[1,5-a]pyrimidine-3-carboxamide] |
